Patent US8835506B2, “Methods and related compositions for the treatment of cancer” (STC.UNM, priority 2008, dated 2014)
Entries after “also recorded” stand apart in the source; their conditions may differ.

Columns and labels:
LNCaP cells [1] = assay: HyperCyt high-throughput flow cytometry, side scatter as endpoint for intracellular granularity; cell death seen as adherent cells becoming non-adherent; type: cell-based, human
Protocol: HyperCyt and High-throughput Data Analysis: The HyperCyt® cytometry analysis system interfaces a flow cytometer and an autosampler. While the sampling probe moves from well to well, a peristaltic pump sequentially aspirates a small volume from each well. A bubble of air, created by the continuously running pump, separates samples from individual wells. Sample and bubble volumes are determined by the time the sampling probe is in a well (sip time) or in taking air while moving from well to well (up time). HyperCyt® sampling of a single 384-well plate is completed in less than 15 minutes. This system has been validated using cell-based high-throughput endpoint assays for ligand binding, surface antigen expression, and immunophenotyping.
The air-bubble separated samples, collected by HyperCyt®, are delivered continuously to the cytometer. The data accumulates as a single, time-resolved file with gaps corresponding to air-bubbles. Both forward and side light scattering properties of treated LNCaP cells were measured using a 488 nm laser. Time-resolved data were analyzed by proprietary software (IDLQuery) set to search for 384 separate data clusters. Data from negative (0.1% DMSO) replicate wells were pooled and used to set gates that define granularity in vehicle-treated LNCaP cells. […] A gate is set reflecting this distinction that is then applied to each data cluster. These values are automatically exported to a Microsoft Excel spreadsheet template that calculates percent side scatter shift in individual treated samples.
(§1) Microscopic and Flow Cytometric Scatter Analysis: Light microscopy images of prostate cancer cells in culture were collected using an Olympus IX70 inverted microscope and a 20× objective. Flow cytometric analysis of forward scatter (FSC) and side scatter (SSC) were preformed using the UNM Shared Flow Cytometry Resource on a Cytomation Mo Flo, an Epics Elite, a Becton Dickinson FACScan, or a Becton Dickinson FACS Calibur.

[2] = tested on: PC3 human prostate cancer cells; assay: Light microscopy of intracellular granularity; type: cell-based; conditions: FIG. 3
Description: as §1

prostate cancer cells = assay: Cell death of human cancer cells cultured with AST; type: cell-based
Protocol: (§2) Cell Viability Assays: Two assays were used to determine cell viability; propidium iodide exclusion with flow cytometry and trypan blue exclusion with hemacytometry. Cells were treated with astemizole at the indicated concentrations for 24 to 96 hours prior to viability analysis. For propidium iodide cell viability determinations, cells were removed from the dishes with 0.05% trypsin. All cell culture medium was collected for the analysis in order to include any cells that may have released from the plate during the incubation period. Propidium iodide was added at a final concentration of 2 μg/ml and cells were analyzed on a Becton Dickinson FACScan flow cytometer. For trypan blue dye exclusion studies, all cell culture medium and cells removed by trypsinization were collected as above. An aliquot of these cells was re-suspended in 0.4% trypan blue. Both viable and non-viable cell counts were obtained by manual counting using a hemacytometer and light microscopy.

[3] = tested on: CWRv22 human prostate cancer cells; assay: Cell death by trypan blue uptake and hemacytometry; type: cell-based
Protocol: as §2

[4] = tested on: LAPC4 human prostate cancer cells; assay: Cell death by trypan blue uptake and hemacytometry; type: cell-based
Protocol: as §2

skin cancer cells (SCC) = assay: Cell death by trypan blue uptake and hemacytometry; type: cell-based; conditions: AST up to 15 μM; listed as AST
Protocol: as §2

[5] = tested on: PC3 androgen-independent human prostate cancer cells; assay: Cell death by trypan blue uptake; type: cell-based
Protocol: as §2

[6] = tested on: LNCaP human prostate cancer cells; assay: Cytotoxicity of AST in culture; type: cell-based
Protocol: as §2

[7] = tested on: 22Rv1 prostate cancer cells; assay: Viability by trypan blue exclusion, astemizole alone or with docetaxel or radiation; type: cell-based, human; set-up: key to action determined with combination therapy: &: Additive action determined with combination therapy.; #: Synergistic action determined with combination therapy; conditions: for level of cell killing in combination: 24 hours
Protocol: as §2
Compounds according to the present invention may also function as radiosensitizers in addition to their anticancer activity. A study was performed showing prostate cancer cell killing actions of astemizole in combination with other therapeutic interventions. Astemizole alone produced a decrease in 22Rv1 prostate cancer cell viability with 8 μM 24 hours after treatment. […] This is true of the other agents which are described herein.

DU145 cells = assay: Cell proliferation assay (CyQUANT NF); type: cell-based, human; conditions: FIG. 7, 4 days
Protocol: (§3) Cell Proliferation Assay: To determine the number of proliferating cells after astemizole treatment, cells were seeded in 96-well tissue culture plates at 5,000 cells per well in 100 uL of DMEM/FCS. Two days after plating, cells were treated with astemizole at the indicated concentrations. Four days after treatment, cell proliferation was determined using the CyQUANT NF Cell Proliferation Assay Kit (Invitrogen, Carlsbad, Calif.) according to the kit instructions.

LAPC4 cells = assay: Cell proliferation assay (CyQUANT NF); type: cell-based, human; conditions: FIG. 7, 4 days
Protocol: as §3

LNCaP cells [8] = assay: Cell proliferation assay (CyQUANT NF); type: cell-based, human; conditions: FIG. 7, 4 days
Protocol: as §3

PC3 cells [9] = assay: Cell proliferation assay (CyQUANT NF); type: cell-based, human; conditions: over a 4 day period
Protocol: as §3

PC3 cells [10] = assay: Hypodiploid population by propidium iodide incorporation and flow cytometry (apoptosis hallmarks); type: cell-based, human
Description: Multiple mechanisms could account for the cell death observed in cancer cells from treatment with AST. […] Thus, administering the agents identified above that induce intracellular granularity in cancer cells may produce cell death through an autophagic mechanism.

[11] = tested on: LC3 II band in CWRv22 cells; assay: LC3 II band induction (autophagy marker); type: cell-based, human; conditions: 10 μM AST, 6 hours
[12] = cited from earlier work
[13] = cited from earlier work; remark: listed apart in the source
[14] = in vivo; cited from earlier work
[15] = rare cases, patients exceeding recommended doses; cited from earlier work
advanced prostate cancer = advanced prostate cancer patients, on average; cited from earlier work

In the case of “1-[(4-fluorophenyl)methyl]-N-[1-[2-(4-ethoxyphenyl)ethyl]-4-piperidyl]benzoimidazol-2-amine [Astemizole]”, the “cancer cell intracellular granularity by SSC flow cytometry” value (LNCaP cells [1]; FIG. 2, prostate cancer cells) is reported as “significantly increase”, the “dose at which cell death is seen” value (LNCaP cells [1]; FIG. 4 dose-response) is reported as 10 µM and the “dose range of AST-induced increases in intracellular granularity” value (LNCaP cells [1]; FIG. 4 dose-response) is reported as “up to 3 μM”. The “intracellular granularity observed by light microscopy” value [2] was “increase in intracellular granularity”, the “concentration at which cells undergo rapid cell death” value (prostate cancer cells) was “above 5 μM” and the “cell killing by AST treatment” value [3] was “dose-response to cell killing”. The cells dead ([3]; 6 μM AST, within 24 hours) was 80%, the “cell killing by AST treatment” value [4] was “dose-response to cell killing” and the cells dead ([4]; 6 μM AST, within 24 hours) was 80%. The “cell death by AST treatment” value (skin cancer cells (SCC)) was “resistant to cell death; also recorded: not killed”, the “time to cell death after treatment” value [5] was at most 24 h and the cell death ([5]; 10 μM AST, 48 hours) was “greater than 25%”. The cells dead ([5]; 15 μM AST, 48 hours) was about 100%, the “cell killing by AST treatment” value [6] was “dose-response to cell killing” and the “action determined with combination therapy” value (from here on “action determined”) ([7]; 2 μM astemizole + 10 nM docetaxel) was “&”. The “% Viability, Mean (SD)” value ([7]; 2 μM astemizole + 10 nM docetaxel, 24 h, n = 3) was 71.3%, the “action determined” value ([7]; 2 μM astemizole + 10 Gy radiation) was “&” and the “% Viability, Mean (SD)” value ([7]; 2 μM astemizole + 10 Gy radiation, 24 h, n = 3) was 63.5%. The “% Viability, Mean (SD)” value ([7]; 2 μM astemizole alone, 24 h, n = 3) was 88.2 (4.9) %, the “action determined” value ([7]; 4 μM astemizole + 10 nM docetaxel) was “&” and the “% Viability, Mean (SD)” value ([7]; 4 μM astemizole + 10 nM docetaxel, 24 h, n = 3) was 74.4%. For the same compound, the “action determined” value ([7]; 4 μM astemizole + 10 Gy radiation) was “#”, the “% Viability, Mean (SD)” value ([7]; 4 μM astemizole + 10 Gy radiation, 24 h, n = 3) was 57.4% and the “% Viability, Mean (SD)” value ([7]; 4 μM astemizole alone, 24 h, n = 3) was 90.6 (1.2) %. The “action determined” value ([7]; 8 μM astemizole + 10 nM docetaxel) was “&”, the “% Viability, Mean (SD)” value ([7]; 8 μM astemizole + 10 nM docetaxel, 24 h, n = 3) was 49.7% and the “action determined” value ([7]; 8 μM astemizole + 10 Gy radiation) was “#”. The “% Viability, Mean (SD)” value ([7]; 8 μM astemizole + 10 Gy radiation, 24 h, n = 3) was 22.2%, the “% Viability, Mean (SD)” value ([7]; 8 μM astemizole alone, 24 h, n = 3) was 64.3 (8.1) % and the “cell viability, astemizole alone” value ([7]; 8 μM, 24 hours after treatment) was “decrease”. The “level of cell killing in combination” value ([7]; 2, 4 and 8 μM astemizole with 10 nM docetaxel) was “additive levels of cell killing”, the “level of cell killing in combination” value ([7]; 2, 4 and 8 μM astemizole with 10 gray radiation) was “synergistic levels of cell killing” and the “prostate cancer cell growth” value (DU145 cells) was “significant reduction”. For the same compound, the “prostate cancer cell growth” value (LAPC4 cells) was “significant reduction”, the “prostate cancer cell growth” value (LNCaP cells [8]) was “significant reduction” and the “concentration inhibiting cell growth” value (PC3 cells [9]) was at least 1 µM. For the same compound, the “hallmarks of apoptotic cell death (hypodiploid population)” value (PC3 cells [10]) was “does not produce hallmarks of apoptotic cell death”, the “LC3 II band associated with autophagic pathways” value [11] was “induction of an LC3 II band” and the “LC3 II band associated with autophagic pathways” value ([11]; listed as AST) was “increase in the LC3 II band”. The absorption ([12]; from the gastrointestinal tract) was “rapidly absorbed”, the excretion ([12]; man) was “excreted as metabolites chiefly in the feces” and the “half-life of the active ingredient” value ([12]; man) was “approximately 1 day”. The metabolism ([12]; man) was “extensively metabolized”, the protein binding [13] was “around 96%” and the “crossing of the blood-brain barrier” value [14] was “does not cross the blood-brain barrier”. The “serious life-threatening cardiovascular adverse events” value [15] was “QT-prolongation, torsades de pointes, and other ventricular arrhythmias”.
For `CC(=O)O[C@@]12CO[C@@H]1C[C@H](O)[C@@]1(C)C(=O)[C@H](O)C3=C(C)[C@@H](OC(=O)[C@H](O)[C@@H](NC(=O)OC(C)(C)C)c4ccccc4)C[C@@](O)([C@@H](OC(=O)c4ccccc4)[C@H]21)C3(C)C` [Taxotere], the prolongation of life (advanced prostate cancer) is listed as 2.5 months.
In the case of `CC(=O)O[C@@]12CO[C@@H]1C[C@H](O)[C@@]1(C)C(=O)[C@H](O)C3=C(C)[C@@H](OC(=O)[C@H](O)[C@@H](NC(=O)OC(C)(C)C)c4ccccc4)C[C@@](O)([C@@H](OC(=O)c4ccccc4)[C@H]21)C3(C)C` [docetaxel], the viability at 0.01 µM ([7]; Homo sapiens, 22Rv1, 10 nM docetaxel alone (0 μM astemizole), 24 h, n = 3, read-out: % Viability, Mean (SD)) is reported as 80.7%.
